# In patent US11208407B2, “Substituted phenyl compounds as indoleamine 2,3-dioxygenase (IDO) inhibitors” (Merck Sharp & Dohme Corp., priority 2017, dated 2021):
# Biological target: IDO1 (Homo sapiens, UniProt P14902)
# Assay: IDO1 Cellular Assay in HeLa Cells Stimulated with IFNγ
# Type: cell-based
# Conditions: IFNγ 100 ng/mL, 300 uM L-tryptophan, about 48 hours, read-out: IDO HeLa Cell Assay, IC50
# Procedure: Biological Assays IDO1 Cellular Assay in HeLa Cells Stimulated with IFNγ
# HeLa cells were cultured in complete HeLa culture medium (90% EMEM, 10% heat-inactivated fetal bovine serum) and expanded to about 1×10^9 cells. The cells were then collected and frozen down at 1×10^7 cells/vial in 1 mL frozen medium (90% complete HeLa culture medium, 10% DMSO).
# Compounds to be tested were serially diluted in ten 3-fold steps in DMSO starting from 10 mM DMSO stocks in Echo low volume plate(s). Compound dilutions or DMSO alone were then dispensed from the dilution plate(s) into Greiner black 384-well assay plate(s) (catalog #781086, 50 nL/well) using an Echo 550 acoustic liquid handler (Labcyte).
# Frozen HeLa cells were thawed and transferred into HeLa assay medium (99% complete HeLa culture medium, 1% Pen/Strep) with 20 mL medium/vial of cells. The cells were spun down at 250 g in a table top centrifuge for 5 min and suspended in same volume of HeLa assay medium. The cells were then counted and adjusted to a density of 2×10^5 cells/mL in HeLa assay medium. Sterile L-tryptophan were added to the cells with final concentration of 300 uM L-tryptophan. A small aliquot (2 mL/plate) of HeLa cells were set aside and were not treated with IFNγ, to serve as the Max-E control.
# HeLa cells with and without IFNγ were dispensed to the respective wells of 384-well assay plates containing the compounds. The plates were incubated for about 48 hours at a 37° C., 5% CO2 incubator. Afterwards, 12 μL of 0.5 M methyl isonipecotate in dimethyl sulfoxide were added into each well and the plates were sealed and incubated at 37° C. without CO2 overnight. The plates were centrifuged for 1 min at 200×g. The resulting fluorescence was measured in a Spectramax plate reader (Molecular Devices) with a 400 nm excitation filter and a 510 nm emission filter.
# The fluorescence intensity of each well was corrected for the background observed in wells with non-IFNγ-treated cells and was expressed as a fraction of the intensity observed in wells of IFNγ-treated cells and DMSO only. Potencies were calculated by linear least squares fit to the four parameter logistic IC50 equation.
# Chain of IDO1 (P14902 whole entry): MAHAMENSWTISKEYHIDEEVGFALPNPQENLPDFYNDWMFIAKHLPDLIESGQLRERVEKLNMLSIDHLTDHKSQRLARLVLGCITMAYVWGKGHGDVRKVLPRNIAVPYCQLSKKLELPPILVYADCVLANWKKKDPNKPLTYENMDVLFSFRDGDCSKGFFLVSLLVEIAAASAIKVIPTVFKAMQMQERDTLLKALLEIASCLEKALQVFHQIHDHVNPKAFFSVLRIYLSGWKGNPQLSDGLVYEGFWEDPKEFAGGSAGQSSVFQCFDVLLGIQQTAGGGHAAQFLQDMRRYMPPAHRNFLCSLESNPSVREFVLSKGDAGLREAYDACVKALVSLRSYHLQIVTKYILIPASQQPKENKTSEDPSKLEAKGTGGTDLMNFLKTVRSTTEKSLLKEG
row,IC50,SMILES
1,819 nM,"Cn1ccc(Nc2ccc(C3(c4nc5cc(C#N)cnc5[nH]4)CCC3)cc2CO)n1 [Example 21, 2-(1-(3-(Hydroxymethyl)-4-((1-methyl-1H-pyrazol-3-yl)amino)phenyl)cyclobutyl)-3H-imidazo[4,5-b]pyridine-6-carbonitrile]"
2,41.8 nM,"N#Cc1cnc2[nH]c(C3(c4ccc(NC(=O)OC5CC5)cc4)CCC3)nc2c1 [Example 22, Cyclopropyl (4-(1-(6-cyano-3H-imidazo[4,5-b]pyridin-2-yl)cyclobutyl)phenyl)carbamate]"
3,890 nM,"N#Cc1cnc2nc(C3(c4ccc(C(=O)NC5CCCCC5)cc4)CC(F)(F)C3)[nH]c2c1 [Example 28, 4-(1-(6-Cyano-1H-imidazo[4,5-b]pyridin-2-yl)-3,3-difluorocyclobutyl)-N-cyclohexylbenzamide]"
4,15.9 nM,"Cc1cc(C2(c3nc4cc(C#N)cnc4[nH]3)CCC2)ccc1NC(=O)c1cccc(C#N)c1 [Example 15, 3-Cyano-N-(4-(1-(6-cyano-3H-imidazo[4,5-b]pyridin-2-yl)cyclobutyl)-2-methylphenyl)benzamide]"
5,152 nM,"O=C(NC1CCCCC1)c1ccc(C2(c3nc4ncc(C(F)(F)F)cc4[nH]3)CCC2)cc1 [Example 34, N-cyclohexyl-4-{1-[6-(trifluoromethyl)-1H-imidazo[4,5-b]pyridin-2-yl]cyclobutyl}benzamide]"
6,2.03 nM,"O=C(Nc1cc(Cl)ccc1F)c1ccc(C2(c3nc4ncc(C(F)(F)F)cc4[nH]3)CCC2)cc1 [Example 37, N-(5-chloro-2-fluorophenyl)-4-{1-[6-(trifluoromethyl)-1H-imidazo[4,5-b]pyridin-2-yl]cyclobutyl}benzamide]"
7,176 nM,"C=Cc1cc(C2(c3nc4cc(C#N)cnc4[nH]3)CCC2)ccc1Nc1ccn(C)n1 [Example 20, 2-(1-(4-((1-Methyl-1H-pyrazol-3-yl)amino)-3-vinylphenyl)cyclobutyl)-3H-imidazo[4,5-b]pyridine-6-carbonitrile]"
8,7.64 nM,"COc1cc(C(F)(F)F)ncc1-c1ccc(C2(c3nc4cc(C(F)(F)F)cnc4[nH]3)COC2)cc1 [Example 41, 2-(3-{4-[4-methoxy-6-(trifluoromethyl)pyridin-3-yl]phenyl}oxetan-3-yl)-6-(trifluoromethyl)-3H-imidazo[4,5-b]pyridine]"
9,2.09 nM,"O=C(Nc1cccc(F)c1)c1ccc(C2(c3nc4ncc(C(F)(F)F)cc4[nH]3)CCC2)cc1 [Example 31, N-(3-fluorophenyl)-4-{1-[6-(trifluoromethyl)-1H-imidazo[4,5-b]pyridin-2-yl]cyclobutyl}benzamide]"
10,590 nM,"Cc1cccc(NC(=O)c2ccc(C3(c4nc5ncc(C#N)cc5[nH]4)CC(F)(F)C3)cc2)n1 [Example 29, 4-(1-(6-Cyano-1H-imidazo[4,5-b]pyridin-2-yl)-3,3-difluorocyclobutyl)-N-(6-methylpyridin-2-yl)benzamide]"
11,2.65 nM,"O=C(Nc1ccc(F)cc1F)c1ccc(C2(c3nc4ncc(C(F)(F)F)cc4[nH]3)CCC2)cc1 [Example 32, N-(2,4-difluorophenyl)-4-{1-[6-(trifluoromethyl)-1H-imidazo[4,5-b]pyridin-2-yl]cyclobutyl}benzamide]"
12,1.97 nM,"N#Cc1cnc2nc(C3(c4ccc(NC(=O)c5cccc(Cl)c5)cc4)CCC3)[nH]c2c1 [Example 2, 3-Chloro-N-(4-(1-(6-cyano-1H-imidazo[4,5-b]pyridin-2-yl)cyclobutyl)phenyl)benzamide]"
13,3.18 nM,"N#Cc1cccc(C(=O)Nc2ccc(C3(c4nc5cc(C(F)(F)F)cnc5[nH]4)CCC3)cc2)c1 [Example 6, 3-Cyano-N-(4-(1-(6-(trifluoromethyl)-3H-imidazo[4,5-b]pyridin-2-yl)cyclobutyl)phenyl)benzamide]"
14,7.18 nM,"N#Cc1cccc(C(=O)Nc2ccc(C3(c4nc5cc(C#N)cnc5[nH]4)CCC3)cc2Cl)c1 [Example 13, N-(2-chloro-4-(1-(6-cyano-3H-imidazo[4,5-b]pyridin-2-yl)cyclobutyl)phenyl)-3-cyanobenzamide]"
15,3.01 nM,"O=C(Nc1ccc(C2(c3nc4ccccc4[nH]3)CCC2)cc1)c1cccc(Cl)c1 [Example 4, N-(4-(1-(1H-benzo[d]imidazol-2-yl)cyclobutyl)phenyl)-3-chlorobenzamide]"
16,140 nM,"N#Cc1cccc(C(=O)Nc2ccc(C3(c4nc5cc(C#N)cnc5[nH]4)CCC3)cc2C#N)c1 [Example 14, 3-cyano-N-(2-cyano-4-(1-(6-cyano-3H-imidazo[4,5-b]pyridin-2-yl)cyclobutyl)phenyl)benzamide]"
17,1.73 nM,"O=C(Nc1ccc(C2(c3nc4cc(Br)cnc4[nH]3)CCC2)cc1Cl)c1cccc(Br)c1 [Example 12, 3-Bromo-N-(4-(1-(6-bromo-3H-imidazo[4,5-b]pyridin-2-yl)cyclobutyl)-2-chlorophenyl)benzamide]"
18,9.94 nM,"O=C(Nc1cncc(Cl)c1)c1ccc(C2(c3nc4ncc(C(F)(F)F)cc4[nH]3)CCC2)cc1 [Example 33, N-(5-chloropyridin-3-yl)-4-{1-[6-(trifluoromethyl)-1H-imidazo[4,5-b]pyridin-2-yl]cyclobutyl}benzamide]"
19,5.09 nM,"N#Cc1cccc(NC(=O)c2ccc(C3(c4nc5ncc(C#N)cc5[nH]4)CC(F)(F)C3)cc2)c1 [Example 38, 4-[1-(6-cyano-1H-imidazo[4,5-b]pyridin-2-yl)-3,3-difluorocyclobutyl]-N-(3-cyanophenyl)benzamide]"
20,5.09 nM,"N#Cc1cccc(NC(=O)c2ccc(C3(c4nc5ncc(C(F)(F)F)cc5[nH]4)CCC3)cc2)c1 [Example 30, N-(3-cyanophenyl)-4-{1-[6-(trifluoromethyl)-1H-imidazo[4,5-b]pyridin-2-yl]cyclobutyl}benzamide]"
21,43.4 nM,"N#Cc1cccc(C(=O)Nc2ccc(C3(c4nc5ccc(Cl)cc5[nH]4)CC(O)C3)cc2)c1 (centres unmarked) [Example 23, N-(4-(1-(6-chloro-1H-benzo[d]imidazol-2-yl)-3-hydroxycyclobutyl)phenyl)-3-cyanobenzamide]"
22,39.6 nM,"CC(C)CNC(=O)c1ccc(C2(c3nc4ncc(C(F)(F)F)cc4[nH]3)CCC2)cc1 [Example 35, N-(2-methylpropyl)-4-{1-[6-(trifluoromethyl)-1H-imidazo[4,5-b]pyridin-2-yl]cyclobutyl}benzamide]"
23,7.69 nM,"N#Cc1ccc(F)c(NC(=O)c2ccc(C3(c4nc5ncc(C(F)(F)F)cc5[nH]4)CCC3)cc2)c1 [Example 36, N-(5-cyano-2-fluorophenyl)-4-{1-[6-(trifluoromethyl)-1H-imidazo[4,5-b]pyridin-2-yl]cyclobutyl}benzamide]"
